Assays:
[1] = biological target: Activin receptor type-1B (Homo sapiens) (UniProt P36896); assay: Inhibition of ACVR1B at 10 uM; settings: values are per cent of control
[2] = biological target: 5'-AMP-activated protein kinase catalytic subunit alpha-1 (Homo sapiens) (UniProt Q13131); assay: Inhibition of AMPK-alpha1 at 10 uM; settings: values are per cent of control
[3] = biological target: Dual specificity tyrosine-phosphorylation-regulated kinase 1A (Homo sapiens) (UniProt Q13627); assay: Inhibition of DYRK1A at 10 uM; settings: values are per cent of control
[4] = biological target: Vascular endothelial growth factor receptor 3 (Homo sapiens) (UniProt P35916); assay: Inhibition of FLT4 at 10 uM; settings: values are per cent of control
[5] = system: Mast/stem cell growth factor receptor Kit (Homo sapiens), P10721 [D816V]; assay: Inhibition of KIT D816V mutant at 10 uM; settings: values are per cent of control
[6] = system: Mast/stem cell growth factor receptor Kit (Homo sapiens), P10721 [V559D,V654A]; assay: Inhibition of KIT V559D, V654A mutant at 10 uM; settings: values are per cent of control
[7] = biological target: Mitogen-activated protein kinase kinase kinase 4 (Homo sapiens) (UniProt Q9Y6R4); assay: Inhibition of MAP3K4 at 10 uM; settings: values are per cent of control
[8] = biological target: MAP kinase-interacting serine/threonine-protein kinase 2 (Homo sapiens) (UniProt Q9HBH9); assay: Inhibition of MKNK2 at 10 uM
[9] = biological target: Macrophage-stimulating protein receptor (Homo sapiens) (UniProt Q04912); assay: Inhibition of MST1R at 10 uM
[10] = biological target: Muscle, skeletal receptor tyrosine-protein kinase (Homo sapiens) (UniProt O15146); assay: Inhibition of MUSK at 10 uM
[11] = biological target: Serine/threonine-protein kinase Nek11 (Homo sapiens) (UniProt Q8NG66); assay: Inhibition of NEK11 at 10 uM
[12] = biological target: Serine/threonine-protein kinase TBK1 (Homo sapiens) (UniProt Q9UHD2); assay: Inhibition of TBK1 at 10 uM
[13] = biological target: Tyrosine-protein kinase receptor Tie-1 (Homo sapiens) (UniProt P35590); assay: Inhibition of TIE1 at 10 uM
[14] = biological target: Serine/threonine-protein kinase TNNI3K (Homo sapiens) (UniProt Q59H18); assay: Inhibition of TNNI3K at 10 uM; settings: values are per cent of control
[15] = biological target: Cyclin-dependent kinase 17 (Homo sapiens) (UniProt Q00537); assay: Inhibition of PCTK2 at 10 uM; settings: values are per cent of control
[16] = system: Phosphatidylinositol 4,5-bisphosphate 3-kinase catalytic subunit alpha isoform (Homo sapiens), P42336 [Q546K]; assay: Inhibition of PIK3CA Q546K mutant at 10 uM
[17] = biological target: Protein kinase C delta type (Homo sapiens) (UniProt Q05655); assay: Inhibition of PRKCD at 10 uM
[18] = biological target: Serine/threonine-protein kinase D1 (Homo sapiens) (UniProt Q15139); assay: Inhibition of PRKD1 at 10 uM
[19] = biological target: Cyclin-dependent kinase 8 (Homo sapiens) (UniProt P49336); assay: Inhibition of CDK8 at 10 uM; values are per cent of control
[20] = biological target: Epithelial discoidin domain-containing receptor 1 (Homo sapiens) (UniProt Q08345); assay: Inhibition of DDR1 at 10 uM; values are per cent of control
[21] = biological target: Interleukin-1 receptor-associated kinase 1 (Homo sapiens) (UniProt P51617); assay: Inhibition of IRAK1 at 10 uM; values are per cent of control
[22] = system: Epidermal growth factor receptor (Homo sapiens), P00533 [L858R]; assay: Inhibition of EGFR L858R mutant at 10 uM; values are per cent of control
[23] = biological target: Tyrosine-protein kinase JAK1 (Homo sapiens) (UniProt P23458); assay: Inhibition of JAK1 JH2 pseudokinase domain at 10 uM; values are per cent of control

Epidermal growth factor receptor (Homo sapiens), P00533 [L858R], sequence (P00533 whole entry L858R, the tested form may be a part): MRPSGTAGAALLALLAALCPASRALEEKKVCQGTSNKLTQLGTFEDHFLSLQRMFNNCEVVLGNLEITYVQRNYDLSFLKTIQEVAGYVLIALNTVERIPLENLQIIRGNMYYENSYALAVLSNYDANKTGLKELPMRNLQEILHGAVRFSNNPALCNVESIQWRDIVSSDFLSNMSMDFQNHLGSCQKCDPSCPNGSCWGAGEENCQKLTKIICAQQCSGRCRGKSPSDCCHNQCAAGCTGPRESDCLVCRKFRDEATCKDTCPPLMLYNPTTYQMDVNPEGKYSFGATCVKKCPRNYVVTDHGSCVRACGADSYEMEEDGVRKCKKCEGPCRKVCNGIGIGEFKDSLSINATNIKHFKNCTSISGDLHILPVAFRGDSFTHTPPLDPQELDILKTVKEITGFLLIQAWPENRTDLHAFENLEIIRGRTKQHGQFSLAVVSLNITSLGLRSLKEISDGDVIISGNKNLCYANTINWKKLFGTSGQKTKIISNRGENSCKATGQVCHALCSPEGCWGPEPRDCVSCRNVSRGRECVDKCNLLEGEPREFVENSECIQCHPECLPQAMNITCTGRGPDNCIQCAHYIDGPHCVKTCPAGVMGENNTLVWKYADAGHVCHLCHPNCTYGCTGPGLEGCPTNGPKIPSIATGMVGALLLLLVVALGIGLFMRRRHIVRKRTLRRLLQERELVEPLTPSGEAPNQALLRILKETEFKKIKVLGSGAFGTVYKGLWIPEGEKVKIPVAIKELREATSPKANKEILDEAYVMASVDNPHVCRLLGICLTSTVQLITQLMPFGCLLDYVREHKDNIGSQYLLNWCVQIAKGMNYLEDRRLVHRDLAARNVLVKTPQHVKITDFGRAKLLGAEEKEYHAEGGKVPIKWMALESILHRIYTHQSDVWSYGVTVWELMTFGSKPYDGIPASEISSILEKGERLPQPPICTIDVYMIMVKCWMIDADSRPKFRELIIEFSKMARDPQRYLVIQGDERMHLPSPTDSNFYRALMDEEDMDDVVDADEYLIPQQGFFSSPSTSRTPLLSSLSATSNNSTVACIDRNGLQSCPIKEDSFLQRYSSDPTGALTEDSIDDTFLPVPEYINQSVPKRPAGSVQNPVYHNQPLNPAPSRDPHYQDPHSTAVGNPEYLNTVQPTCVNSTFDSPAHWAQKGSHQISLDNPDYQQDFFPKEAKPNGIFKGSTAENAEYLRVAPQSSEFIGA
Vascular endothelial growth factor receptor 3 (Homo sapiens), sequence (P35916 whole entry): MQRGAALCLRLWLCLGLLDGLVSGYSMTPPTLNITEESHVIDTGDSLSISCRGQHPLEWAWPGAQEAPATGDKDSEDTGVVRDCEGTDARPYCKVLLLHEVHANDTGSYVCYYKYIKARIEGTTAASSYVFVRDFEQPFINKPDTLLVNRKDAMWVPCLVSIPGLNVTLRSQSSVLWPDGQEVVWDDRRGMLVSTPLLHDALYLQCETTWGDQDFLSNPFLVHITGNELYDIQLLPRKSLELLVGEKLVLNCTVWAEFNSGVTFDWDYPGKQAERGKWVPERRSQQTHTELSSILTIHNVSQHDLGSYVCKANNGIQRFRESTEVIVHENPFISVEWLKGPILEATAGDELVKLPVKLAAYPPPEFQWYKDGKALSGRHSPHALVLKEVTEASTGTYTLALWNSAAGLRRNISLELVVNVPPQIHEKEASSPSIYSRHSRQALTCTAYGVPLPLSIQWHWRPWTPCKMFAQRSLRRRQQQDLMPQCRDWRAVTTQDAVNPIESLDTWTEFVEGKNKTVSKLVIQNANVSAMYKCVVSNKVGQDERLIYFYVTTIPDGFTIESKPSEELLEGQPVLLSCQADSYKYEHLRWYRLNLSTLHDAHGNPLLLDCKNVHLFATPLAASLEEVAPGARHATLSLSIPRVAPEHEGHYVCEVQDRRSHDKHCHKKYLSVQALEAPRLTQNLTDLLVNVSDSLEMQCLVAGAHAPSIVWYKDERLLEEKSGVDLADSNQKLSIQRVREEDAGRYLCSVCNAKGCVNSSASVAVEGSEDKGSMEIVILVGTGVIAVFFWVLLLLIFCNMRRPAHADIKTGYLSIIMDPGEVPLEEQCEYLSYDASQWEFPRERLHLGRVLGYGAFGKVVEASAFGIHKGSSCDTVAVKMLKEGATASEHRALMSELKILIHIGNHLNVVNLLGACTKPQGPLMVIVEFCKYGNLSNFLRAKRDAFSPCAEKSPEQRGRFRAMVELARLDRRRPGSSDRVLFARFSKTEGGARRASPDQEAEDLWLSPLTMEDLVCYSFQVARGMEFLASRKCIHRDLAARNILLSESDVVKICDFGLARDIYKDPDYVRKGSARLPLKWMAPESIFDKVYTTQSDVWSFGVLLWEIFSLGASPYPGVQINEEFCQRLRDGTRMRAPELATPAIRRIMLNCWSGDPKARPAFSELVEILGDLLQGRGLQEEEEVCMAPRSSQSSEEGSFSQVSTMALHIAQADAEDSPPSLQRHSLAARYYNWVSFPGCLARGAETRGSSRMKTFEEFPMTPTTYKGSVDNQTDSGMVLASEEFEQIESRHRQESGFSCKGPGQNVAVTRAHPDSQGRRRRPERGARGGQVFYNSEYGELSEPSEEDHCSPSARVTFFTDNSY
Mast/stem cell growth factor receptor Kit (Homo sapiens), P10721 [D816V], sequence (P10721 whole entry D816V): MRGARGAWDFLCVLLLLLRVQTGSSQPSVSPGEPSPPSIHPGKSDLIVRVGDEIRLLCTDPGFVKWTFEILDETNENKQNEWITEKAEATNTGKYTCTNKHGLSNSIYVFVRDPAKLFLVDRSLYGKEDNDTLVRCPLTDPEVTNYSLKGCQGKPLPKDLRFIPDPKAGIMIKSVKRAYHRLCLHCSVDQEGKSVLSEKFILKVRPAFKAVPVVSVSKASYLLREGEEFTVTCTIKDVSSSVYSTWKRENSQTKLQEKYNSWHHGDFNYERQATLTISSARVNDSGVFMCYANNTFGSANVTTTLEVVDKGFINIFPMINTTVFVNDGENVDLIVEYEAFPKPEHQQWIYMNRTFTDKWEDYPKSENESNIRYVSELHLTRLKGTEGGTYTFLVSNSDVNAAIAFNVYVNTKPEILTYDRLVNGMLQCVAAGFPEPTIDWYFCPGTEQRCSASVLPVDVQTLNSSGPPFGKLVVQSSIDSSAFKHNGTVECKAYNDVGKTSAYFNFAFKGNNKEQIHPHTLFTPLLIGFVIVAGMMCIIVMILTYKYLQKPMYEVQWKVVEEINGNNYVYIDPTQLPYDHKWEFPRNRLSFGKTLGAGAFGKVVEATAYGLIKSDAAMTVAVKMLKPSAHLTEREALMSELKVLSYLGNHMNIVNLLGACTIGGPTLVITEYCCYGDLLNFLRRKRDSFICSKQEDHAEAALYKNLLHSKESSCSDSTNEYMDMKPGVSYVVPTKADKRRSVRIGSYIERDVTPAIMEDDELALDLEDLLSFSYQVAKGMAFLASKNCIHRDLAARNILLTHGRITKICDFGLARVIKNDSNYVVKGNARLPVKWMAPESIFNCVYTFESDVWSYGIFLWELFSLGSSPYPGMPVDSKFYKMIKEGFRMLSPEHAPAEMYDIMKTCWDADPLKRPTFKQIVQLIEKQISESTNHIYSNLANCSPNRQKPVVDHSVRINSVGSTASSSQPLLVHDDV
MAP kinase-interacting serine/threonine-protein kinase 2 (Homo sapiens), sequence (Q9HBH9 whole entry, looked up): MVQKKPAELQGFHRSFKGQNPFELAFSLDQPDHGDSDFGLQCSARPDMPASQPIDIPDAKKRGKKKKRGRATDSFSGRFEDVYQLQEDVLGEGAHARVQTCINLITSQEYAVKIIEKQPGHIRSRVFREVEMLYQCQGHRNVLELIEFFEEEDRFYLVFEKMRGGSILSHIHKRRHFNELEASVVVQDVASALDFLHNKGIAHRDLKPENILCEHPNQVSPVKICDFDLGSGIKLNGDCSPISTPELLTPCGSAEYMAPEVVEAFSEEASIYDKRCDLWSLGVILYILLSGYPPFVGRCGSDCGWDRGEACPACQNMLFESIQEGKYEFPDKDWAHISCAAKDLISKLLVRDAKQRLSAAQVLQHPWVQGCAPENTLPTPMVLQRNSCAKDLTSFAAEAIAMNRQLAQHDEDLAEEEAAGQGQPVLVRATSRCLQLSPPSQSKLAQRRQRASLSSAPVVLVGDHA
Interleukin-1 receptor-associated kinase 1 (Homo sapiens), sequence (P51617 whole entry, looked up): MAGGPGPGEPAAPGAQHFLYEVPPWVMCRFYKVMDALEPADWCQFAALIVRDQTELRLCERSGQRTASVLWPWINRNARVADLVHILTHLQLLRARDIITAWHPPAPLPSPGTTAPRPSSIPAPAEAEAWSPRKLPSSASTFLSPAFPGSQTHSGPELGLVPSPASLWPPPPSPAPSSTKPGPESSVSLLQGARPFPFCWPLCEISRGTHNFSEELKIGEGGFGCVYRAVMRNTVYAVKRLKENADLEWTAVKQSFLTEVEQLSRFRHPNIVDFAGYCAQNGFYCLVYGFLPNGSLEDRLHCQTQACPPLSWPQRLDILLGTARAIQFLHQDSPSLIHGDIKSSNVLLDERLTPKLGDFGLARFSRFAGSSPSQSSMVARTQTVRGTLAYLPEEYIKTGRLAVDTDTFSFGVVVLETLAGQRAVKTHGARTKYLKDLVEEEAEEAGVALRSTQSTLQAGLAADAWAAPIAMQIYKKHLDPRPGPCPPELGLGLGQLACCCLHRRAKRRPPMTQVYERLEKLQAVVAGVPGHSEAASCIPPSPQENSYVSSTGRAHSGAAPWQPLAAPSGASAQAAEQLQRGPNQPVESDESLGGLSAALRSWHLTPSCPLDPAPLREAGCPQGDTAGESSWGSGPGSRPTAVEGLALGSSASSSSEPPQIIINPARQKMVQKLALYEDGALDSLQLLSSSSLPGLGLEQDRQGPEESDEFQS
Mast/stem cell growth factor receptor Kit (Homo sapiens), P10721 [V559D,V654A], sequence (P10721 whole entry V559D/V654A): as the sequence (P10721 whole entry D816V) above, with V559D, V654A, V816D counted along it

| SMILES | residual binding, % of control [1] [%] | residual binding, % of control [2] [%] | residual binding, % of control [3] [%] | residual binding, % of control [4] [%] | residual binding, % of control [5] [%] | residual binding, % of control [6] [%] | residual binding, % of control [7] [%] | inhibition [8] [%] | inhibition [9] [%] | inhibition [10] [%] | inhibition [11] [%] | inhibition [12] [%] | inhibition [13] [%] | residual binding, % of control [14] [%] | residual binding, % of control [15] [%] | inhibition [16] [%] | inhibition [17] [%] | inhibition [18] [%] | level, % of control [19] [%] | level, % of control [20] [%] | further results |
| --- | --- | --- | --- | --- | --- | --- | --- | --- | --- | --- | --- | --- | --- | --- | --- | --- | --- | --- | --- | --- | --- |
| CCN1CCN(Cc2ccc(NC(=O)c3ccc(C)c(C#Cc4cnc5[nH]ccc5c4)c3)cc2C(F)(F)F)CC1 | 63 | 0.8 | 100 | 0.1 | 0.65 | 1.4 | 62 | 0.6 | 76 | 0 | 18 | 84 | 1.1 | 0 | 3.7 | 100 | 24 | 63 | 18 | 0 | level, % of control [21]: 6.2%; level, % of control [22]: 0.25%; level, % of control [23]: 74% |
| CCN1CCN(Cc2ccc(NC(=O)c3ccc(C)c(C#Cc4cccnc4)c3)cc2C(F)(F)F)CC1 | 85 | 1.2 | 60 | 0 | 2 | 4.2 | 100 | 0 | 68 | 0.05 | 9.1 | 100 | 1.6 | 0 | 8.2 | 100 | 39 | 51 | 8.2 | 0.05 | level, % of control [21]: 1.2%; level, % of control [22]: 4%; level, % of control [23]: 90% |

Source: ChEMBL document CHEMBL1177794, “Broad spectrum alkynyl inhibitors of T315I Bcr-Abl” (Bioorg Med Chem Lett, 2010)
